Test system: HIV
Test: MT4 assay (anti-HIV activity)
Assay type: cell-based
Conditions: Human immunodeficiency virus 1, 96 h, antiviral HIV activity in HTLV-1 transformed cell line MT-4; luciferase read 96 hours later; 10 point dose response
Experimental: Antiviral HIV activity and cytotoxicity values for compounds of the invention from Table 1 were measured in parallel in the HTLV-1 transformed cell line MT-4 based on the method previously described (Hazen et al., 2007, In vitro antiviral activity of the novel, tyrosyl-based human immunodeficiency virus (HIV) type 1 protease inhibitor brecanavir (GW640385) in combination with other antiretrovirals and against a panel of protease inhibitor-resistant HIV (Hazen et al., “In vitro antiviral activity of the novel, tyrosyl-based human immunodeficiency virus (HIV) type 1 protease inhibitor brecanavir (GW640385) in combination with other antiretrovirals and against a panel of protease inhibitor-resistant HIV”, Antimicrob. Agents Chemother. 2007, 51: 3147-3154; and Pauwels et al., “Sensitive and rapid assay on MT-4 cells for the detection of antiviral compounds against the AIDS virus”, J. of Virological Methods 1987, 16: 171-185).
Luciferase activity was measured 96 hours later by adding a cell titer glo (Promega, Madison, Wis.). Percent inhibition of cell protection data was plotted relative to no compound control. Under the same condition, cytotoxicity of the compounds was determined using cell titer Glo™ (Promega, Madison, Wis.). IC50s were determined from a 10 point dose response curve using 3-4-fold serial dilution for each compound, which spans a concentration range >1000 fold.
These values are plotted against the molar compound concentrations using the standard four parameter logistic equation:
y=((Vmax*x̂n)/(K̂n+x̂n))+Y2
Y2=minimum y n=slope factor
Vmax=maximum y x=compound concentration [M]

Compared with Cc1ccc(-c2c(C)c3c(c(C)c2C(OC(C)(C)C)C(=O)O)CN(Cc2cccc(F)c2)CC3)cc1 (stereo not shown) [Example 1, 2-(tert-Butoxy)-2-(2-(3-fluorobenzyl)-5,8-dimethyl-6-(p-tolyl)-1,2,3,4-tetrahydroisoquinolin-7-yl)acetic Acid], Cc1ccc(-c2c(C)c3c(c(C)c2C(OC(C)(C)C)C(=O)O)CN(C(=O)c2cccc(F)c2)CC3)cc1 (stereo not shown) [Example 6] is 9.4-fold lower in IC50: 3250 nM for the first, 347 nM for the second.

First: Cc1ccc(-c2c(C)c3c(c(C)c2C(OC(C)(C)C)C(=O)O)CN(C2CCCCC2)CC3)cc1 (stereo not shown) [Example 2, 2-(tert-Butoxy)-2-(2-cyclohexyl-5,8-dimethyl-6-(p-tolyl)-1,2,3,4-tetrahydroisoquinolin-7-yl)acetic Acid]
Second: Cc1ccc(-c2c(C)c3c(c(C)c2C(OC(C)(C)C)C(=O)O)CCN(C2CCCCC2)C3)cc1 (stereo not shown) [Example 21, 2-(tert-Butoxy)-2-(2-cyclohexyl-5,8-dimethyl-7-(p-tolyl)-1,2,3,4-tetrahydroisoquinolin-6-yl)acetic Acid]
The IC50 of the first is 64-fold higher: 1720 nM for the first, 27 nM for the second. The second is the more potent here.

Compared with Cc1ccc(-c2c(C)c3c(c(C)c2C(OC(C)(C)C)C(=O)O)CN(CC2CCCCC2)CC3)cc1 (stereo not shown) [Example 3, 2-(tert-Butoxy)-2-(2-(cyclohexylmethyl)-5,8-dimethyl-6-(p-tolyl)-1,2,3,4-tetrahydroisoquinolin-7-yl)acetic Acid], Cc1ccc(-c2c(C)c3c(c(C)c2[C@H](OC(C)(C)C)C(=O)O)CN(S(=O)(=O)CC2CCCCC2)CC3)cc1 [Example 18, (S)-2-(tert-Butoxy)-2-(2-((cyclohexylmethyl)sulfonyl)-5,8-dimethyl-6-(p-tolyl)-1,2,3,4-tetrahydroisoquinolin-7-yl)acetic Acid] is 2.7-fold lower in IC50: 3200 nM for the first, 1180 nM for the second. The second is the more potent here.

First: Cc1ccc(-c2c(C)c3c(c(C)c2C(OC(C)(C)C)C(=O)O)CN(C(=O)C2CCCCC2)CC3)cc1 (stereo not shown) [Example 4, 2-(tert-Butoxy)-2-(2-(cyclohexanecarbonyl)-5,8-dimethyl-6-(p-tolyl)-1,2,3,4-tetrahydroisoquinolin-7-yl)acetic Acid]
Second: Cc1ccc(-c2c(C)c3c(c(C)c2C(OC(C)(C)C)C(=O)O)CN(C(=O)NC2CCCCC2)CC3)cc1 (stereo not shown) [Example 10, 2-(tert-Butoxy)-2-(2-(cyclohexylcarbamoyl)-5,8-dimethyl-6-(p-tolyl)-1,2,3,4-tetrahydroisoquinolin-7-yl)acetic Acid]
The IC50 of the first is 4.6-fold lower: 323 nM for the first, 1480 nM for the second.

Compared with Cc1ccc(-c2c(C)c3c(c(C)c2C(OC(C)(C)C)C(=O)O)CN(C(=O)C(=O)N2CCCCC2)CC3)cc1 (stereo not shown) [Example 5, 2-(tert-Butoxy)-2-(5,8-dimethyl-2-(2-oxo-2-(piperidin-1-yl)acetyl)-6-(p-tolyl)-1,2,3,4-tetrahydroisoquinolin-7-yl)acetic Acid], Cc1ccc(-c2c(C)c3c(c(C)c2C(OC(C)(C)C)C(=O)O)CN(C(=O)N2CCCCC2)CC3)cc1 (stereo not shown) [Example 9, 2-(tert-Butoxy)-2-(5,8-dimethyl-2-(piperidine-1-carbonyl)-6-(p-tolyl)-1,2,3,4-tetrahydroisoquinolin-7-yl)acetic Acid] is 4.1-fold lower in IC50: 157 nM for the first, 38 nM for the second.

Compared with Cc1ccc(-c2c(C)c3c(c(C)c2C(OC(C)(C)C)C(=O)O)CN(CC(=O)N2CCCCC2)CC3)cc1 (stereo not shown) [Example 7, 2-(tert-Butoxy)-2-(5,8-dimethyl-2-(2-oxo-2-(piperidin-1-yl)ethyl)-6-(p-tolyl)-1,2,3,4-tetrahydroisoquinolin-7-yl)acetic Acid], Cc1ccc(-c2c(C)c3c(c(C)c2[C@H](OC(C)(C)C)C(=O)O)CN(C(=O)N2CCCCC2)CC3)cc1 [Example 12, (S)-2-(tert-Butoxy)-2-(5,8-dimethyl-2-(piperidine-1-carbonyl)-6-(p-tolyl)-1,2,3,4-tetrahydroisoquinolin-7-yl)acetic Acid] is 3-fold lower in IC50: 418 nM for the first, 139 nM for the second. The second is the more potent here.

Compared with Cc1ccc(-c2c(C)c3c(c(C)c2C(OC(C)(C)C)C(=O)O)CN(c2ccccc2)CC3)cc1 (stereo not shown) [Example 8, 2-(tert-Butoxy)-2-(5,8-dimethyl-2-phenyl-6-(p-tolyl)-1,2,3,4-tetrahydroisoquinolin-7-yl)acetic Acid], Cc1ccc(-c2c(C)c3c(c(C)c2C(OC(C)(C)C)C(=O)O)CCN(C(=O)c2cccc(F)c2)C3)cc1 (stereo not shown) [Example 22, 2-(tert-Butoxy)-2-(2-(3-fluorobenzoyl)-5,8-dimethyl-7-(p-tolyl)-1,2,3,4-tetrahydroisoquinolin-6-yl)acetic Acid] is 20-fold lower in IC50: 6480 nM for the first, 329 nM for the second. The second is the more potent here.

Compared with Cc1ccc(-c2c(C)c3c(c(C)c2C(OC(C)(C)C)C(=O)O)CN(S(=O)(=O)c2cccc(F)c2)CC3)cc1 (stereo not shown) [Example 11, 2-(tert-Butoxy)-2-(2-((3-fluorophenyl)sulfonyl)-5,8-dimethyl-6-(p-tolyl)-1,2,3,4-tetrahydroisoquinolin-7-yl)acetic Acid], COc1c(F)cccc1C(=O)N1CCc2c(C)c([C@H](OC(C)(C)C)C(=O)O)c(-c3ccc(C)cc3)c(C)c2C1 [Example 26, (S)-2-(tert-Butoxy)-2-(2-(3-fluoro-2-methoxybenzoyl)-5,8-dimethyl-7-(p-tolyl)-1,2,3,4-tetrahydroisoquinolin-6-yl)acetic Acid] is 13-fold lower in IC50: 817 nM for the first, 61 nM for the second.

Compared with Cc1ccc(-c2c(C)c3c(c(C)c2[C@H](OC(C)(C)C)C(=O)O)CN(C(=O)N2CCC(C)(C)CC2)CC3)cc1 [Example 13, (S)-2-(tert-Butoxy)-2-(2-(4,4-dimethylpiperidine-1-carbonyl)-5,8-dimethyl-6-(p-tolyl)-1,2,3,4-tetrahydroisoquinolin-7-yl)acetic Acid], Cc1ccc(-c2c(C)c3c(c(C)c2[C@H](OC(C)(C)C)C(=O)O)CN(C(=O)N2CCCC2)CC3)cc1 [Example 14, (S)-2-(tert-Butoxy)-2-(5,8-dimethyl-2-(pyrrolidine-1-carbonyl)-6-(p-tolyl)-1,2,3,4-tetrahydroisoquinolin-7-yl)acetic Acid] is 8.6-fold higher in IC50: 129 nM for the first, 1110 nM for the second. The first is the more potent here.

Compared with Cc1ccc(-c2c(C)c3c(c(C)c2[C@H](OC(C)(C)C)C(=O)O)CN(S(=O)(=O)N2CCC(C)(C)CC2)CC3)cc1 [Example 15, (S)-2-(tert-Butoxy)-2-(2-((4,4-dimethylpiperidin-1-yl)sulfonyl)-5,8-dimethyl-6-(p-tolyl)-1,2,3,4-tetrahydroisoquinolin-7-yl)acetic Acid], Cc1ccc(-c2c(C)c3c(c(C)c2[C@H](OC(C)(C)C)C(=O)O)CN(S(=O)(=O)N2CCCCC2)CC3)cc1 [Example 16, (S)-2-(tert-Butoxy)-2-(5,8-dimethyl-2-(piperidin-1-ylsulfonyl)-6-(p-tolyl)-1,2,3,4-tetrahydroisoquinolin-7-yl)acetic Acid] is 3.3-fold lower in IC50: 113 nM for the first, 34 nM for the second. The second is the more potent here.

Compared with Cc1ccc(-c2c(C)c3c(c(C)c2[C@H](OC(C)(C)C)C(=O)O)CN(C(=O)OC(C)(C)C)CC3)cc1 [Example 17, (S)-2-(tert-Butoxy)-2-(2-(tert-butoxycarbonyl)-5,8-dimethyl-6-(p-tolyl)-1,2,3,4-tetrahydroisoquinolin-7-yl)acetic Acid], Cc1ccc(-c2c(C)c3c(c(C)c2[C@H](OC(C)(C)C)C(=O)O)CCN(C(=O)OC(C)(C)C)C3)cc1 [Example 27, (S)-2-(tert-Butoxy)-2-(2-(tert-butoxycarbonyl)-5,8-dimethyl-7-(p-tolyl)-1,2,3,4-tetrahydroisoquinolin-6-yl)acetic Acid] is 3.9-fold lower in IC50: 444 nM for the first, 114 nM for the second. The second is the more potent here.

Going from Cc1ccc(-c2c(C)c3c(c(C)c2[C@H](OC(C)(C)C)C(=O)O)CN(S(=O)(=O)C2CCCCC2)CC3)cc1 [Example 19, (S)-2-(tert-Butoxy)-2-(2-(cyclohexylsulfonyl)-5,8-dimethyl-6-(p-tolyl)-1,2,3,4-tetrahydroisoquinolin-7-yl)acetic Acid] to Cc1ccc(-c2c(C)c3c(c(C)c2C(OC(C)(C)C)C(=O)O)CCN(C(=O)N2CCCCC2)C3)cc1 (stereo not shown) [Example 23, 2-(tert-Butoxy)-2-(5,8-dimethyl-2-(piperidine-1-carbonyl)-7-(p-tolyl)-1,2,3,4-tetrahydroisoquinolin-6-yl)acetic Acid], the IC50 falls from 1450 nM to 108 nM (13-fold).

Cc1ccc(-c2c(C)c3c(c(C)c2[C@H](OC(C)(C)C)C(=O)O)CN(C(=O)CC(C)(C)C)CC3)cc1 [Example 20, (S)-2-(tert-Butoxy)-2-(2-(3,3-dimethylbutanoyl)-5,8-dimethyl-6-(p-tolyl)-1,2,3,4-tetrahydroisoquinolin-7-yl)acetic Acid] and Cc1ccc(-c2c(C)c3c(c(C)c2[C@H](OC(C)(C)C)C(=O)O)CCN(C(=O)CC(C)(C)C)C3)cc1 [Example 25, (S)-2-(tert-Butoxy)-2-(2-(3,3-dimethylbutanoyl)-5,8-dimethyl-7-(p-tolyl)-1,2,3,4-tetrahydroisoquinolin-6-yl)acetic Acid] are within 1.5-fold of each other in IC50: 119 nM for the first, 95 nM for the second.

Compared with Cc1ccc(-c2c(C)c3c(c(C)c2[C@H](OC(C)(C)C)C(=O)O)CCN(C(=O)C(C)(C)C)C3)cc1 [Example 24, (S)-2-(tert-Butoxy)-2-(5,8-dimethyl-2-pivaloyl-7-(p-tolyl)-1,2,3,4-tetrahydroisoquinolin-6-yl)acetic Acid], Cc1ccc(-c2c(C)c3c(c(C)c2[C@H](OC(C)(C)C)C(=O)O)CCN(C2CCOCC2)C3)cc1 [Example 28, (S)-2-(tert-Butoxy)-2-(5,8-dimethyl-2-(tetrahydro-2H-pyran-4-yl)-7-(p-tolyl)-1,2,3,4-tetrahydroisoquinolin-6-yl)acetic Acid] is 4.3-fold higher in IC50: 87 nM for the first, 378 nM for the second.

— patent US20180334436A1 (VIIV HEALTHCARE UK LIMITED, priority 2015, published 2018)
